According to patent US12616698B2, “Methods for reducing liver fat and for treating fatty liver disorders” (Corcept Therapeutics Incorporated, priority 2021, dated 2026):

Experiments:
[1] = tested on: patients with presumed NASH; assay: Example 6 study: transaminases and safety laboratory values; assay type: in vivo, human
Experimental: This study was a double-blind, multi-center, placebo-controlled, randomized 3-arm phase 2a study (NCT03823703) conducted to assess the safety and efficacy of miricorilant in reducing liver fat content (LFC) in patients with presumed NASH. Adult patients (18-75 years) with presumed NASH were randomized 1:1:1 to miricorilant 600 mg daily, miricorilant 900 mg daily, or placebo for 12 weeks. […] Abbreviations used in this Example and in the Figures include: ALP, alkaline phosphatase; ALT, alanine aminotransferase; AST, aspartate aminotransferase; ELF, enhanced liver fibrosis; LFC, liver fat content; NASH, non-alcoholic steatohepatitis; ULN, upper limit of normal; AUC, area under the concentration-time curve; Cmax, maximum concentration; EOT, end of treatment; GGT, gamma-glutamyltransferase; INR, international normalized ratio; MRI-PDFF, magnetic resonance imaging-proton density fat fraction; pt, patient; SD, standard deviation; ULN, upper limit of normal; Wk, week.
Key inclusion criteria included that the patients be adults between 18-75 years old; be presumed to suffer from NASH with fibrosis; have LFC as measured by MRI-PDFF≥8%; have levels of AST<5×ULN and ALT<5×ULN; and have eGFR>60 mL/min/1.73 m^2. Primary endpoints included relative change in LFC from baseline by MRI-PDFF. Secondary endpoints included change from baseline in AST, ALT, GGT, and change from baseline in ELF score.
Patients were divided into different cohorts and received different regimens of miricorilant. The cohorts included patients receiving 30 mg mircorilant once per day; patients receiving 50 mg mircorilant once per day; patients receiving 100 mg mircorilant once per day; patients receiving 150 mg mircorilant once per day; patients receiving 100 mg mircorilant on Mondays, Wednesdays, and Fridays; patients receiving 100 mg mircorilant on Mondays and Fridays; and patients receiving 200 mg mircorilant once per week. Patients receiving 100 mg mircorilant on Mondays and Fridays were termed “Cohort 6”.
FIG. 13 provides a plot of MRI-PDFF (top line beginning at week 0) and liver enzyme alanine aminotransferase (ALT; bottom line beginning at week 0) for a patient who received miricorilant treatment that included a cessation of miricorilant treatment from week 7 to week 10. […] GGT was elevated at baseline (peak 88 U/L at Wk 10); at other weeks it was below baseline. Eosinophils (%) baseline 7.3, decreased to 2.2 at Wk 2 and increased Wk 3 (peak 4.3), decreased Wk 8 (2.0) and stable until EOT.

C57BL/6J male mice = assay: AMLN diet NASH mouse model, drug provided in the AMLN diet; assay type: in vivo; conditions: 60 mg/kg miricorilant in AMLN diet, 8 weeks; for Liver weight at termination of the study: vs diet-alone control (FIG. 8A)
Experimental: Two studies were conducted in C57BL/6J male mice (n=12 per group) maintained on a diet high in fat (40%), cholesterol (2%) and fructose (20%; referred to as the AMLN diet: see, e.g., Tolbol et al., World Journal of Gastroenterology, 24(2):179-194 (2018)) for 42 weeks before dosing with miricorilant was initiated. In the first study, all animals ate the AMLN diet, and received either placebo, 30 mg/kg miricorilant, or 60 mg/kg mifepristone once per day orally. […] All animals received the AMLN diet for 42 weeks prior to receiving their first dose of study drug or placebo. 4 weeks prior to receiving that first dose, a liver biopsy and histological examination of biopsy tissue was performed for each animal; 3 weeks prior to receiving that first dose, animals were randomized into three groups: control, miricorilant, or mifepristone. Only mice with fibrosis stage >=1 and steatosis score >=2 were allowed in the study and the groups were stratified according to liver col1a1 so that each study group had similar overall distributions of liver col1a1 among the mice. All animals continued on the study diet for the 3 weeks following randomization, at which time study drug or placebo administration began. All animals received their assigned drugs for 8 weeks (the 8 week in vivo study period). At 56 days (week 8) after initiation of drug administration, plasma ALT, AST, triglycerides, total cholesterol, and miricorilant levels were measured, and animals were sacrificed, liver necropsies were performed, liver histological ((NAFLD Activity Score, Fibrosis Stage, steatosis (scored using hematoxylin and eosin staining (HE)), col1a (scored using immunohistochemistry (IHC)) and Galectin-3 (IHC)) and liver biochemical measurements (including liver triglycerides and total cholesterol) were made, and liver and plasma samples were obtained for genetic ((e.g., RNA sequencing) and other analyses.
Thus, in these studies, the mice were subjected to a liver biopsy approximately 4 weeks before initiation of dosing with miricorilant and only mice with confirmed fibrosis (fibrosis stage ≥1) and steatosis (score ≥2) were entered into the study. At the end of the dosing period, blood samples were collected for determination of plasma ALT, AST, triglycerides, total cholesterol, and miricorilant. Liver samples were collected for analysis of triglycerides, total cholesterol, hydroxyproline, and histopathology. Body weight and food consumption were monitored throughout the study.
Type I collagen IHC staining Type I collagen (Southern Biotech, Cat. 1310-01) IHC were performed using standard procedures. Briefly, after antigen retrieval and blocking of endogenous peroxidase activity, slides were incubated with primary antibody. The primary antibody was detected using a polymeric HRP-linker antibody conjugate. Next, the primary antibody was visualized with DAB as chromogen. Finally, sections were counterstained in hematoxylin and cover-slipped.
Liver Galectin-3 content Galectin-3 (Biolegend, Cat. #125402) IHC was performed using standard procedures. Briefly, after antigen retrieval and blocking of endogenous peroxidase activity, slides were incubated with primary antibody. The primary antibody was detected using a linker secondary antibody followed by amplification using a polymeric HRP-linker antibody conjugate. Next, the primary antibody was visualized with DAB as chromogen. Finally, sections were counterstained in hematoxylin and cover-slipped.
Total liver col1a1 was evaluated from liver samples stained with anti-type I collagen (col1a1) (Southern Biotech, cat. 1310-01) at the end of the treatment period (typically using low power (20×) magnification). Galectin-3 content was evaluated from images of liver samples stained with anti-Galectin-3 (BioLegend, Cat. 125402) at the end of the treatment period (typically using low power (20×) magnification). Terminal relative (left) and total (right) liver type I Collagen (Col1a1) quantification was determined by morphometry. […]

## O=c1[nH]c(=O)c(Cc2cccc(C(F)(F)F)c2)c([C@H]2CC[C@H](c3ccccc3)CC2)[nH]1 [miricorilant, (E)-6-(4-Phenylcyclohexyl)-5-(3-trifluoromethylbenzyl)-1H-pyrimidine-2,4-dione]
[1]; 100 mg twice weekly, over 12 weeks
  Hepatic transaminase levels: without an associated rise
[1]; including 100 mg twice weekly
  Safety and tolerability: safe, well tolerated
[1]; one patient (FIG. 13), Wk 2, baseline 7.3
  Eosinophils (%): 2.2%
[1]; one patient (FIG. 13), Wk 3
  Eosinophils (%) peak: 4.3%
[1]; one patient (FIG. 13), Wk 8, stable until EOT
  Eosinophils (%): 2.0%
[1]; one patient (FIG. 13), Wk 10, elevated at baseline
  GGT peak: 88 U/L
[1]; one patient, treatment ceased from week 7 to week 10 (FIG. 13)
  Total bilirubin, direct bilirubin, ALP, INR: within normal limits
[1]; responders receiving intermittent miricorilant, all cohorts
  Rise in ALT>3×ULN, intermittent compared to daily dosing: less likely to have a rise in ALT>3×ULN
[1]; treatment non-responders (FIG. 10)
  Transaminase levels: did not experience a rise
C57BL/6J male mice; IHC morphometry, vs vehicle (FIG. 8C)
  Relative and total liver Galectin-3 content: reduced
C57BL/6J male mice; IHC morphometry, vs vehicle, significant as total weight (FIG. 8B)
  Total liver type I collagen (col1a1) content: reduced
C57BL/6J male mice; vs diet-alone control
  Body weight: significantly reduced
C57BL/6J male mice
  Liver weight at termination of the study: reduced
C57BL/6J male mice; listed as Miricorilant
  Liver weight at termination of the study: significantly reduced
